Source: patent publication US20220073541A1, “SILICON ION COMPLEX ORGANIZED WITH CARBOXYLIC ACID, METHOD FOR MANUFACTURING COMPLEX, AND PRODUCT USING SAME” (KOREA NEW TECHNOLOGY CO.,LTD., priority 2019, published 2022)

Experiment: Metasilicate dissolution experiment (gastric acid conditions, pH 1.5)
Format: physicochemical
Protocol: A dissolution experiment was performed using sodium metasilicate nonahydrate (Na2SiO3.9H2O).
(2) The pH of the solution was lowered to pH 1.5 using 37% hydrochloric acid and measured again.
(1) 150 ml of water was added in a 250 ml beaker, adjusted in pH to a value of 1.5 with 37% hydrochloric acid to meet the standards for gastric acid of the human body, and combined with another water to a volume of 250 ml.
(2) 1 g of metasilicate nonahydrate (Na2SiO3.9H2O) was added to the solution of step (1).

| pH of solution in pure water (1 g in 500 ml pure water) | behaviour of dissolved silicate after lowering pH (1 g in 500 ml pure water, pH lowered to 1.5 using 37% hydrochloric acid) | dissolution of silicate added to acidic water (1 g added to 250 ml water at pH 1.5 (37% hydrochloric acid)) | SMILES |
| --- | --- | --- | --- |
| 12.23 | gelled while agglomerating | – | O.O.O.O.O.O.O.O.O.O=[Si]([O-])[O-].[Na+].[Na+] [Comparative Example 1, sodium metasilicate nonahydrate (Na2SiO3.9H2O)] |
| – | – | precipitated rather than dissolved | O.O.O.O.O.O.O.O.O.O=[Si]([O-])[O-].[Na+].[Na+] [Comparative Example 2, metasilicate nonahydrate (Na2SiO3.9H2O)] |
